# Tests used:
# [1] = system: NIH 3T3 (non-malignant fibroblasts); assay: SRB cytotoxicity assay, NIH 3T3; assay type: cell-based; conditions: Mus musculus, NIH3T3, 72 h of treatment, cut-off 30 μM
# Description: (§1) To assess their cytotoxicity parent, triterpenoic acids 1–3, their acetates 4–6, the amides 7–18, as well as the respective rhodamine B conjugates 19–24 were subjected to SRB assays employing several human tumor cell lines (A375, HT29, MCF-7, A2780, and HeLa) as well as non-malignant fibroblasts (NIH 3T3).
# (§2) A detailed description of materials and methods can be found in the Supplementary Materials File. For biological screening, the cell lines were obtained from ATCC: A375 (CRL-1619), HT29 (HTB-38), MCF7 (HTP-22), A2780 (HTP-77), HeLa (CCL-2), and NIH 3T3 (CRL-1573) ^13C NMR spectra (Supplementary Materials) were recorded as APT spectra showing CH and CH3 groups as positive signals and CH2 groups and quaternary carbons as negative signals. […]
# (§3) 2. Cytotoxicity assay (SRB assay)
# (§4) The cell lines were obtained from Department of oncology (Martin-Luther-University Halle Wittenberg). Cultures were maintained as monolayers in RPMI 1640 medium with L-glutamine (Capricorn Scientific GmbH, Ebsdorfergrund, Germany) supplemented with 10% heat inactivated fetal bovine serum (Sigma -Aldrich Chemie GmbH, Steinheim, Germany) and penicillin/streptomycin (1%, Capricorn Scientific GmbH, Ebsdorfergrund, Germany) at 37 °C in a humidified atmosphere with 5% CO 2.
# (§5) The cytotoxicity of the compounds was eva luated using the sulforhodamine -B (Kiton-Red S, ABCR) micro culture colorimetric assay using […] in 96 -well plates with the seeding of the cells on day 0 applying appropriate cell densities to prevent confluence of the cells during the period of the experiment. On day 1, the cells were treated with six di fferent concentrations (1, 3, 7, 12, 20 and 30 μM); thereby, the final concentration of DMSO was always < 0.5%, generally regarded as non-toxic to the cells. On day 4, the supernatant medium was discarded; the cells were fixed with 10 % trichloroacetic acid. After another day at 4 °C, the cells were washed in a strip washer and dyed with the SRB solution (100 μL, 0.4% in 1% acetic acid) for about 20 min to be followed by washing of the plates (four times, 1% acetic acid) and air -drying […]
# (§6) overnight. Furthermore, tris base solution (200 μL, 10 mM) was added to each well and absorbance was measured at λ = 570 nm employing a reader (96 wells, Tecan Spectra, Crailsheim, Germany). The EC50 values were averaged from three independent experiments performed each in triplicate calculated from semi logarithmic dose response curves applying a non-linear four-parameter Hills-slope equation (GraphPad Prism5; variables top and bottom were set to 100 and 0, respectively).
# [2] = system: A375 cells; assay: Staining experiments (acridine orange, rhodamine 123, Hoechst 33,342); assay type: cell-based, human; conditions: 48 h, same area as rhodamine 123, not in nucleus (Hoechst 33,342)
# Protocol: The mode of action—as previously shown for several triterpene-rhodamine B conjugates—is to act as mitocans. […] Thereby, Hoechst 33,342 binds selectively to DNA while rhodamine 123 is usually applied for dying mitochondria.
# Figure 1 Staining experiments: A375 cells, 48 h; (A): control; (B): in the presence of 24; (C): Hoechst 33,342 staining; (D): merged (Hoechst 33,342, control); and (E): in the presence of rhodamine 123.
# [3] = system: MCF7 (breast adenocarcinoma); assay: SRB cytotoxicity assay, MCF7; assay type: cell-based, human; conditions: Homo sapiens, MCF7, 72 h of treatment, cut-off 30 μM
# Description: as §1, §2, §3, §4, §5, §6
# [4] = system: HT29 (colorectal carcinoma); assay: SRB cytotoxicity assay, HT29; assay type: cell-based, human; conditions: Homo sapiens, HT-29, 72 h of treatment, cut-off 30 μM
# Description: as §1, §2, §3, §4, §5, §6
# [5] = system: several human tumor cell lines (A375, HT29, MCF-7, A2780, and HeLa); assay: SRB assays, cell line not given; assay type: cell-based; conditions: cell line not stated
# Description: as §1, with “3T3). […]” for “3T3).”
# as §3, §4, §5, §6
# [6] = system: HeLa (cervical carcinoma); assay: SRB cytotoxicity assay, HeLa; assay type: cell-based, human; conditions: Homo sapiens, HeLa, 72 h of treatment, cut-off 30 μM
# Description: as §1, §2, §3, §4, §5, §6
# [7] = system: A2780 (ovarian carcinoma); assay: SRB cytotoxicity assay, A2780; assay type: cell-based, human
# Description: as §1, §2, §3, §4, §5, §6
# [8] = system: A375 (melanoma); assay: SRB cytotoxicity assay, A375; assay type: cell-based, human; conditions: Homo sapiens, A-375, 72 h, 72 h of treatment, cut-off 30 μM
# Description: as §1, §2, §3, §4, §5, §6
structure (smiles),measurement,setting,value
"CCN(CC)c1ccc2c(-c3ccccc3C(=O)N3CCCN(C(=O)[C@]45CC[C@@H](C)[C@H](C)[C@H]4C4=CC[C@@H]6[C@@]7(C)C[C@@H](OC(C)=O)[C@H](OC(C)=O)[C@@](C)(COC(C)=O)[C@@H]7[C@H](O)C[C@@]6(C)[C@]4(C)CC5)CC3)c3ccc(=[N+](CC)CC)cc-3oc2c1 [Compound 24, N-{6-Diethylamino-9-[2-({4[ (2α,3β,4α,6β)-2,3,23-tris(acetyloxy)-6-hydroxy-28-oxours-12-en-28-yl)-1,4-diazepan-1-yl}carbonyl]phenyl]-3H-xanthen-3-ylidene)-N-ethylethanaminium Chloride]",EC50,[1],101 ± 23.1 nM
same,mode of action / localization within the cells,[2],acts as a mitocan
same,EC50,[3],16.2 ± 4.5 nM
same,EC50,[4],12.7 ± 3.8 nM
same,times more cytotoxic than parent madecassic acid,[5],"~10,000 times"
same,EC50,[6],52.6 ± 15.1 nM
same,times more cytotoxic than parent madecassic acid,[7]; A2780 ovarian cancer cells,"more than 10,000 times"
same,EC50,"[7]; Homo sapiens, A2780, SRB assay, 72 h of treatment, cut-off 30 μM",2.9 ± 0.5 nM
same,EC50,[8],9.5 ± 1.5 nM

# From paper PMC9026082, “Madecassic Acid—A New Scaffold for Highly Cytotoxic Agents” (International Journal of Molecular Sciences, 2022)
